Data from patent US20120035187A1 (priority 2009, published 2012).

Key:
[1] = target: T1, human amyloid β peptide (Homo sapiens, UniProt P05067); assay: Agglutination of amyloid β peptide, thioflavine T method; format: biochemical; details: 45 μl of 200 nM test sample solution + 15 μl amyloid β peptide solution, 37° C., six days, thioflavine T fluorescence; for inhibition at 0.2 µM: read-out: Inhibition rate (%) of agglutination of amyloid β peptide
T1 construct: purchased AnaSpec Inc., CA, USA
Method: The filtrate was made into a test sample solution by adjusting the concentration to 200 nM using Tris-HCl buffer.
The agglutination of amyloid β peptide was measured by a method using thioflavine T (see Hilal A. Lashuel et al., Journal of Biological Chemistry, Vol. 277, No. 45, pp. 42881-42890 (2002)). Thioflavine T binds to […] structure of agglutinated amyloid β peptide and produces fluorescence. The amount of the fluorescence was determined using a fluorometric plate reader and used as an index of the agglutination of amyloid β peptide. When the agglutination of amyloid β peptide is inhibited by the test sample, fluorescence of Thioflavine T is decreased. The effects of the test samples on the agglutination of amyloid β peptide were investigated by the method. A human amyloid β peptide, having the amino acid sequence of SEQ ID NO:2 consisting of 40 amino acids, commercialized by AnaSpec Inc., CA, USA, was dissolved in sterilized distilled water to give a concentration of 400 μM for use. Test samples were diluted with Tris-HCl buffer. In a reaction vessel, 15 μl of […] admixed with 45 μl of a 200 nM test sample solution and allowed to react at 37° C. for six days. After the reaction, 50 μl of the reaction mixture was withdrawn, admixed with 450 μl of a 10 μM Thioflavine T solution, and after 30 minutes, the resulting fluorescence was measured using a fluorometer (excitation wavelength: 450 nm, […]: 482 nm). The fluorescent intensity of Thioflavine T only was regarded as 0%, and that of the solution, prepared by mixing 15 μl of a […] amyloid β peptide solution and 45 μl of Tris-HCl buffer and allowing to react at 37° C. for six days, was regarded as 100%. Inhibition rate (%) of the agglutination of amyloid β peptide was determined by the steps of measuring the relative fluorescence intensity in the case of using each test sample solution for the reaction, and subtracting the measured value from 100%.

[2] = test system: ICR mice injected with amyloid β fragment; assay: Novelty object recognition test, mouse injected with amyloid β fragment (Alzheimer's dementia model); format: in vivo; details: for adverse effect / novelty object recognition test (in words): mice injected with amyloid β fragment; for adverse effect: i.p. once a day over 13 days; for novelty object recognition test (in words): vs amyloid β fragment alone; for Index for object discrimination: mouse administered with amyloid β fragment
Method: One hundred of ICR mice (male, five weeks of age, body weight of 25 to 30 g, commercialized by Charles Liver Laboratories Japan Inc., Kanagawa, Japan) were randomly divided into 10 groups, each consisting 10 heads, and raised separately until the experiment was terminated. […] A micro syringe with an […] stainless needle (3 mm length) was used for injection. The injection site was determined by confirming the staining at right-and-left lateral ventricles of the frontal section, dorsal third ventricle, and ventral third ventricle by injecting an Evans' Blue solution (0.3 μg/0.3 μl) in place of the solution of amyloid β fragment.
The test, which consists of three parts of acclimation, practicing trial, and holding trial, was operated at six to eight days after administering amyloid β fragment into the subjects' ventricles. The experiment apparatus (40 cm in depth, 30 cm in width and 30 cm in height), in which the floor was paved with wood tips, was placed in a noiseless place under an illumination of about 1,000 lux. On the 6th day after the administration, a mouse was placed in the center of the apparatus without seeking object and allowed to seek freely for 10 minutes (acclimation). After 24 hours (on the 7th day after the administration), two objects (objects A and B) were placed in the apparatus at a position 10-cm apart from the lateral side, and the mouse was placed in the center of the apparatus and allowed to seek freely for 10 minutes (practicing trial). After 24 hours (on 8th day after the administration), object A (memorized object) sought by the mouse on the previous day was placed at the same position of object A as placed on the previous day, and object C (novel object) different from object B used on the previous day […] of object B as placed on the previous day, and then the mouse was placed in the center of the apparatus and allowed to seek freely for 10 minutes (holding trial). When the mouse directed its muffle close to the object within 2 cm apart from the object or allowed its muffle to contact with the object, the mouse was judged to be seeking, and the seeking time thereof was measured with a stopwatch. The object discrimination index [={(seeking time for novel object)−(seeking time for memorized object)}/{(seeking time for novel object)+(seeking time for memorized object)}] was calculated. The object discrimination index means the ratio of increase in seeking time for novel object to the total seeking time, which becomes longer when the memory of the once sought object is more strongly held and becomes shorter when the memory is more weakly held.

[3] = 500 μg/kg body weight i.p. once a day

T1 sequence (P05067 672-711): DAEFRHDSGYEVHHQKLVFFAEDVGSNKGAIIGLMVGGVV

SMILES | Inhibition rate (%) of agglutination of amyloid β peptide [1] [%] | adverse effect [2] | novelty object recognition test (in words) [2, 3] | Index for object discrimination ([2]; dose 50 μg/kg body weight) | Index for object discrimination ([2]; dose 500 μg/kg body weight) | novelty object recognition test (in words) ([2]; 50 μg/kg body weight i.p. once a day) | Index for object discrimination ([2]; dose 5 μg/kg body weight) | inhibition at 0.2 µM [1] [%]
CCN1C=CC(=CC=C(C=Cc2cc[n+](CC)c3ccccc23)c2cc[n+](CC)c3ccccc23)c2ccccc21.[I-].[I-] [NK-4] | 73 | No adverse effect | significant improvement | 0.15 ± 0.07 | 0.41 ± 0.08 | – | – | –
CCCCN1C=C/C(=C/C=C(/C=C/c2cc[n+](CCCC)c3ccccc23)c2cc[n+](CCCC)c3ccccc23)c2ccccc21 [NK-26] | – | No adverse effect | – | 0.19 ± 0.07 | 0.11 ± 0.08 | significant improvement | 0.05 ± 0.08 | –
CCN1/C(=C/C=C(/C=C/c2sc3ccccc3[n+]2CC)c2sc3ccccc3[n+]2CC)Sc2ccccc21.[I-].[I-] [NK-100] | – | – | – | – | – | – | – | 99
CCCN1C=CC(=CC=C(C=Cc2cc[n+](CCC)c3ccccc23)c2cc[n+](CCC)c3ccccc23)c2ccccc21.[I-].[I-] [NK-234] | – | No adverse effect | significant improvement | – | 0.29 ± 0.07 | – | – | –
CC[n+]1ccccc1/C=C/c1ccc(N(C)C)cc1 [NK-557] | – | – | – | – | – | – | – | 95
